This is an account of results in ChEMBL document CHEMBL3102783, “Structural studies, homology modeling and molecular docking of novel non-competitive antagonists of GluK1/GluK2 receptors” (Bioorg Med Chem, 2014).

The target in test [1] is T1, Glutamate receptor ionotropic, kainate 2 (Homo sapiens, UniProt Q13002). In words: Displacement of [3H]-kainate from GluK2 receptor (unknown origin). (In general: Displacement assays read how much labelled ligand stays bound in the presence of the test substance.)
Test [2] addresses T2, Glutamate receptor ionotropic, kainate 1 (Homo sapiens, UniProt P39086). In words: Displacement of [3H]-kainate from GluK1 receptor (unknown origin).
The target in test [3] is T2, Glutamate receptor ionotropic, kainate 1. The experiment in a line: Displacement of [3H]-kainate from GluK1 receptor (unknown origin) at 100 uM.
Test [4] concerns the target T1, Glutamate receptor ionotropic, kainate 2. In words: Displacement of [3H]-kainate from GluK2 receptor (unknown origin) at 100 uM.

T1 sequence (Q13002 whole entry): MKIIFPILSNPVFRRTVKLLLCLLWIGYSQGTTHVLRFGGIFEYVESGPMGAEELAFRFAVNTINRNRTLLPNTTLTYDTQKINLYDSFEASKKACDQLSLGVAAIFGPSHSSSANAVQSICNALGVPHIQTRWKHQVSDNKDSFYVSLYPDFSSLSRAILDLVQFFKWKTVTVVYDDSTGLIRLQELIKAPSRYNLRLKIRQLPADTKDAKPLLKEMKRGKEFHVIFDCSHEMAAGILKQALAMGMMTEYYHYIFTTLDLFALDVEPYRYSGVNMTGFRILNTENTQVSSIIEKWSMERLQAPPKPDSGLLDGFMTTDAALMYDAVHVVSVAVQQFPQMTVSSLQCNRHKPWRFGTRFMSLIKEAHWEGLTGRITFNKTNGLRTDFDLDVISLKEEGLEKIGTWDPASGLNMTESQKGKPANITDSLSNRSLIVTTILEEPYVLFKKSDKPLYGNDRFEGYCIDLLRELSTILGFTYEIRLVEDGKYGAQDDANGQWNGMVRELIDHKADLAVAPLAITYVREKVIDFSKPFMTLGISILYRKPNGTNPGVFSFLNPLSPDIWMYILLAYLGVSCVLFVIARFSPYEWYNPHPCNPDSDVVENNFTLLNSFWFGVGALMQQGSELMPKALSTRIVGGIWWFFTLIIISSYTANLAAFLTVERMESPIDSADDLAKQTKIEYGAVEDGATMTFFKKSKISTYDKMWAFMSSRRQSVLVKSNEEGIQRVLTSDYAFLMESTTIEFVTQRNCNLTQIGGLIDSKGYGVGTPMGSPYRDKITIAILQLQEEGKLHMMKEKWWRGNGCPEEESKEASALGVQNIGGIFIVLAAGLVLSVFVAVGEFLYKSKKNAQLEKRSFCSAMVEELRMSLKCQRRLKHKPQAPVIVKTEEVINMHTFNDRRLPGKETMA
T2 sequence (P39086 whole entry): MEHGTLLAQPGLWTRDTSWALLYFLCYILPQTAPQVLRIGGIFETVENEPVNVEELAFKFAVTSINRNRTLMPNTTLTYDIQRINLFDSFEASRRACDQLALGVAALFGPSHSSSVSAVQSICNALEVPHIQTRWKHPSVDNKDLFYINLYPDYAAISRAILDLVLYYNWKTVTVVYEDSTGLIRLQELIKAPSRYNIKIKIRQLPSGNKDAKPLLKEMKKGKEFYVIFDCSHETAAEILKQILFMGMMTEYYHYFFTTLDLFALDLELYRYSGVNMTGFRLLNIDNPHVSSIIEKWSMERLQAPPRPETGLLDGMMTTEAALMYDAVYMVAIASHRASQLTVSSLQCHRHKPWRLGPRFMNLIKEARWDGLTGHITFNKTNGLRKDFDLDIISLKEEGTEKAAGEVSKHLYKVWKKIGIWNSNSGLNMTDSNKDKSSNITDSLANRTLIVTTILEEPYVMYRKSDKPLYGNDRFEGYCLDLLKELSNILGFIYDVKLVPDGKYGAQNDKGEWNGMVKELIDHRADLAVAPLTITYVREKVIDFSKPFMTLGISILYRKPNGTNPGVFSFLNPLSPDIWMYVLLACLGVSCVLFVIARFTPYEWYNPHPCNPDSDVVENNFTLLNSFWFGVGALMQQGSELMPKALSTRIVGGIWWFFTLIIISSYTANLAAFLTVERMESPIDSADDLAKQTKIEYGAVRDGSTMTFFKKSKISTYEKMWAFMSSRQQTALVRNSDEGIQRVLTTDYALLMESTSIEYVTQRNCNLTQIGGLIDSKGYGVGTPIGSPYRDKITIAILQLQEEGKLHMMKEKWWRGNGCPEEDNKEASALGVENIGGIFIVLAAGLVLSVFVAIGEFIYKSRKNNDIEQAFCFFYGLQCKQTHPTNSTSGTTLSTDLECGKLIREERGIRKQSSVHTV

As usually defined, the IC50 is the concentration that inhibits the measured activity by half. As to `CCn1c(-c2ccc(OC)cc2)c(C)c2cc(OC)ccc21`, the IC50 in test [1] amounted to 0.7 µM; in test [2] it was 4 µM.
A word on the inhibition: it is the change of the read-out against control, counted positive when it falls. Consider `CCn1c(-c2ccc(OC)cc2)c(C)c2ccccc21`, for which the IC50 in test [1] came out at 10 µM. Moreover, the inhibition in test [3] turned out to be 32%.
Compound `CCn1c(-c2ccccc2)c(C)c2cc(OC)ccc21` gave an IC50 in test [1] of 6 µM. The same compound registered an inhibition in test [3] of 32%.
`CCn1c2c(c3cc(OC)ccc31)CCc1ccccc1-2`: the inhibition was 1% in test [4] and 0% in test [3].
On to `CCn1c(-c2ccccc2)cc2cc(OC)ccc21`, for which the IC50 in test [1] amounted to 6.7 µM; in test [2] it was 12 µM.
For the compound `COc1ccc(-c2c(C)c3cc(OC)ccc3n2Cc2ccc(Cl)cc2)cc1`, the figures for the inhibition in test [4] and in test [3] were 20% and 0%, respectively.
